Reference: US10940139B2, “Compounds that interact with the Ras superfamily for the treatment of cancers, inflammatory diseases, rasopathies, and fibrotic disease” (Shy Therapeutics LLC, priority 2017, dated 2021)

What was measured:
[1] = system: IL6 production in RAW 264.7 macrophage cell line; assay: Mouse IL6 quantification assay (LPS-stimulated macrophages, ELISA); format: cell-based; details: RAW264.7, RAW 264.7 murine leukemia virus transformed macrophage cell lines, LPS stimulation, read-out: IL-6 % Inhibition at 30 μM
[2] = system: TNFα production in RAW 264.7 macrophage cell line; assay: Mouse TNF alpha quantification assay (LPS-stimulated macrophages, ELISA); format: cell-based; details: RAW264.7, RAW 264.7 murine leukemia virus transformed macrophage cell lines, LPS stimulation, read-out: TNF-α % Inhibition at 30 μM

| SMILES | inhibition at 30 µM [1] | inhibition at 30 µM [2] |
| --- | --- | --- |
| COCC(C)Nc1nc(-c2ccccn2)nc2sc(C)c(-c3ccccc3)c12 (stereo not drawn) [drawing 2039] | 76 to 100% | 76 to 100% |
| O=C(c1csc2c(O)nc(-c3ccccn3)nc12)N1CCC(N2CCCC2=O)CC1 [drawing 2106] | 1 to 25% | 26 to 50% |
| COc1ccnc(-c2nc(O)c3c(C#N)csc3n2)c1 [drawing 2203] | 1 to 25% | 0% |
| O=C(c1cocn1)N1CCCc2c(O)nc(-c3ccccn3)nc21 [drawing 2081] | 1 to 25% | 1 to 25% |
| COCCNc1nc(-c2nccn2C)nc2sc(-c3ccccc3)c(-c3ccncc3)c12 [drawing 2423] | 51 to 75% | 1 to 25% |
| Cn1ccnc1-c1nc(O)c2scc(-c3cccc(OC(F)(F)F)c3)c2n1 [drawing 2430] | 76 to 100% | 51 to 75% |
| Cc1nc(-c2ccccn2)nc(O)c1CCC(=O)Nc1cccc(OCC(=O)N2CCCC2)c1 [drawing 2036] | 0% | 1 to 25% |
| COCc1ccc(-c2csc3c(O)nc(-c4ccccn4)nc23)cc1F [drawing 2239] | 76 to 100% | 51 to 75% |
| COc1ccc(CCC(=O)Nc2nc(-c3ccccn3)nc3sccc23)cn1 [drawing 2330] | 76 to 100% | 51 to 75% |
| O=C(O)c1cc2nc(-c3ccccn3)nc(O)c2s1 [drawing 2243] | 1 to 25% | 1 to 25% |
| Oc1nc(-c2ccccn2)nc2c(Br)c(-c3ccccc3)sc12 [drawing 2380] | 1 to 25% | 0% |
| O=C(CCc1cnn(-c2ccccc2)c1)Nc1nnc(-c2ccccc2)[nH]1 | 26 to 50% | 1 to 25% |
| c1ccc(-c2csc3nc(-c4ccccn4)nc(NN4CCOCC4)c23)cc1 [drawing 2159] | 51 to 75% | 26 to 50% |
| Cc1c(-c2csc3c(O)nc(-c4ccccn4)nc23)cnn1C [drawing 2327] | 76 to 100% | 51 to 75% |
| Cc1sc2c(O)nc(-c3nccn3C)nc2c1-c1ccc(OCC(C)C)nc1 [drawing 2427] | 1 to 25% | 1 to 25% |
| O=C(Nc1nc(-c2ccccn2)cs1)c1ccc2[nH]cnc2c1 [drawing 2012] | 26 to 50% | 1 to 25% |
| COCCNc1nc(-c2ccccn2)nc2scc(-c3ccccc3)c12 [drawing 2161] | 76 to 100% | 76 to 100% |

| SMILES | inhibition at 30 µM [1] | inhibition at 30 µM [2] |
| --- | --- | --- |
| Oc1nc(-c2ccccn2)nc2c(C3CCC3)csc12 [drawing 2316] | 76 to 100% | 76 to 100% |
| O=c1nc(-c2ccccn2)[nH]c2scc(-c3cccs3)c12 [drawing 2024] | 0% | 1 to 25% |
| O=C(Nc1nnc(-c2ccccn2)[nH]1)c1ccc(NC(=O)c2ccccn2)cc1 [drawing 1980] | 0% | 1 to 25% |
| Nc1nc(O)c2scc(-c3ccccc3Cl)c2n1 [drawing 2119] | 26 to 50% | 0% |
| Nc1nc(O)c2sc(-c3cccc(C(=O)NC4CCNC4=O)c3)cc2n1 (stereo not drawn) [drawing 2369] | 1 to 25% | 1 to 25% |
| COc1ccnc(-c2nc(O)c3ccsc3n2)c1 [drawing 2166] | 1 to 25% | 1 to 25% |
| CC(C)(C)c1ccc(-c2csc3c(O)nc(-c4ccccn4)nc23)cc1 [drawing 2240] | 76 to 100% | 76 to 100% |
| Cc1c(C(=O)Nc2nnc(-c3ccccn3)[nH]2)oc2ccccc12 [drawing 1936] | 0% | 1 to 25% |
| CN(CC(=O)N1CCCc2c(O)nc(-c3ccccn3)nc21)S(=O)(=O)c1ccccc1 [drawing 2074] | 1 to 25% | 0% |
| c1ccc(-c2csc3nc(-c4ccccn4)nc(N4CCN(Cc5cccnc5)CC4)c23)cc1 [drawing 2139] | 76 to 100% | 51 to 75% |
| COCC1CCN(C(=O)c2csc3c(O)nc(N)nc23)CC1 [drawing 2090] | 1 to 25% | 1 to 25% |
| COc1ccc(CCNC(=O)c2csc3nc(-c4ccccn4)nc(N4CCS(=O)(=O)CC4)c23)cn1 [drawing 2246] | 26 to 50% | 0% |
| N#CCc1ccc(OCC(=O)Nc2nnc(-c3ccccn3)[nH]2)cc1 [drawing 1998] | 0% | 1 to 25% |
| Cn1cc(C2CC2C(=O)Nc2nnc(-c3ccccn3)[nH]2)cn1 (stereo not drawn) [drawing 1932] | 0% | 1 to 25% |
| Oc1nc(-c2ncccn2)nc2c(-c3cccc(C(F)(F)F)c3)csc12 [drawing 2435] | 1 to 25% | 26 to 50% |
| COc1cc(-c2csc3c(O)nc(-c4ccccn4)nc23)cnc1C(F)(F)F [drawing 2276] | 51 to 75% | 1 to 25% |
